Results taken from ChEMBL document CHEMBL1133836, “Anchoring and bola cationic amphiphiles for nucleotide delivery. Effects of orientation and extension of hydrophobic regions” (2001).

How the values were obtained:
Assay type in all cases: functional, Mus musculus
[1] = tested on: NIH3T3; test: Transfection activity of the liposomes derived from compound determined by luciferase assay at 12.5 nmol
[2] = tested on: NIH3T3; test: Cytotoxicity expressed as percent viability of liposome-plasmid DNA complex at 12.5 nmol
[3] = tested on: NIH3T3; test: Cytotoxicity expressed as percent viability of liposome-plasmid DNA complex at 50 nmol
[4] = tested on: NIH3T3; test: Cytotoxicity expressed as percent viability of liposome-plasmid DNA complex at 25 nmol
[5] = tested on: NIH3T3; test: Cytotoxicity expressed as percent viability of liposome-plasmid DNA complex at 100 nmol
[6] = tested on: NIH3T3; test: Transfection activity of the liposomes derived from compound determined by luciferase assay at 25 nmol
[7] = tested on: NIH3T3; test: Cytotoxicity expressed as percent viability of liposome-plasmid DNA complex

| SMILES | Transfection activity [1] | Viability [2] | Viability [3] | Viability [4] | Viability [5] | Transfection activity [6] | Viability [7] |
| --- | --- | --- | --- | --- | --- | --- | --- |
| C[C@H](CCC(=O)NCCCNCCCCN)C1CCC2C3CCC4CC(OC/C=C/CO[C@@H]5CC[C@]6(C)C(CCC7C6CC[C@]6(C)C7CCC6[C@H](C)CCC(=O)NCCCNCCCCN)C5)CC[C@]4(C)C3CC[C@@]21C (stereo partly drawn) | 1000000 RLU (mg of protein)-1 |  |  |  |  |  |  |
| C[C@H](CCC(=O)NCCCNCCCCN)C1CCC2C3CCC4CC(OC/C=C/CO[C@H]5CC[C@]6(C)C(CCC7C6CC[C@]6(C)C7CCC6[C@H](C)CCC(=O)NCCCNCCCCN)C5)CC[C@]4(C)C3CC[C@@]21C (stereo partly drawn) | 1500000 RLU (mg of protein)-1 | 95% | 40% | 75% | 5% | 2000000 RLU (mg of protein)-1 |  |
| CC(C)CCC[C@@H](C)C1CCC2C3CC=C4CC(OC(=O)NCCN(C)C)CCC4(C)C3CCC21C (stereo partly drawn) |  |  |  |  |  |  | 95% |
